Data reported in patent US9102752B2, “Peptide vaccine for prevention and immunotherapy of dementia of the Alzheimer's type” (United Biomedical, Inc., priority 2013, dated 2015).

Columns and labels:
[1] = tested on: anti-Aβ antibodies in macaque antisera; experiment: Specificity analysis (10-mer peptide ELISA) of antisera from Cynomolgus macaques; assay type: binding
[2] = tested on: anti-Aβ antibodies in sera of vaccinated patients; experiment: Epitope mapping, competitive binding inhibition EIA with patient sera (10-mer peptides, IC50); parameters: species or system human; Epitope mapping, fine specificity analysis, serum of subject P210: unit not given here; details: for Epitope mapping, fine specificity analysis, serum of subject P101: serum 16 wpi of vaccinated patient P101; for Epitope mapping, fine specificity analysis, serum of subject P102: serum 16 wpi of vaccinated patient P102; for Epitope mapping, fine specificity analysis, serum of subject P103: serum 16 wpi of vaccinated patient P103; for Epitope mapping, fine specificity analysis, serum of subject P104: serum 16 wpi of vaccinated patient P104; for Epitope mapping, fine specificity analysis, serum of subject P105: serum 16 wpi of vaccinated patient P105; for Epitope mapping, fine specificity analysis, serum of subject P106: serum 16 wpi of vaccinated patient P106; for Epitope mapping, fine specificity analysis, serum of subject P107: serum 16 wpi of vaccinated patient P107; for Epitope mapping, fine specificity analysis, serum of subject P108: serum 16 wpi of vaccinated patient P108; for Epitope mapping, fine specificity analysis, serum of subject P109: serum 16 wpi of vaccinated patient P109; for Epitope mapping, fine specificity analysis, serum of subject P201: serum 16 wpi of vaccinated patient P201; for Epitope mapping, fine specificity analysis, serum of subject P202: serum 16 wpi of vaccinated patient P202; for Epitope mapping, fine specificity analysis, serum of subject P203: serum 16 wpi of vaccinated patient P203; for Epitope mapping, fine specificity analysis, serum of subject P204: serum 16 wpi of vaccinated patient P204; for Epitope mapping, fine specificity analysis, serum of subject P205: serum 16 wpi of vaccinated patient P205; for Epitope mapping, fine specificity analysis, serum of subject P206: serum 16 wpi of vaccinated patient P206; for Epitope mapping, fine specificity analysis, serum of subject P207: serum 16 wpi of vaccinated patient P207; for Epitope mapping, fine specificity analysis, serum of subject P208: serum 16 wpi of vaccinated patient P208; for Epitope mapping, fine specificity analysis, serum of subject P209: serum 16 wpi of vaccinated patient P209; for Epitope mapping, fine specificity analysis, serum of subject P210: serum 16 wpi of vaccinated patient P210
[3] = antisera of macaques given UBI AD Vaccine 150 μg/dose, 9 WPI
[4] = antisera of macaques given UBI AD Vaccine 150 μg/dose, 15 WPI
[5] = antisera of macaques given UBI AD Vaccine 750 μg/dose, 9 WPI
[6] = antisera of macaques given UBI AD Vaccine 750 μg/dose, 15 WPI

With “12 (SEVKMDAEFR; PEPTIDE (1)..(10) Abeta -5-5 or APP 770(S667-R676); listed as Homo sapiens) [compound 12]” the “Reactivity of antisera with peptide (specificity analysis ELISA)” value (“Reactivity of antisera with peptide” below) [1, 3] was 0.056, the “Reactivity of antisera with peptide” value [1, 4] was 0.053 and the “Reactivity of antisera with peptide” value [1, 5] was 0.054. The “Reactivity of antisera with peptide” value [1, 6] was 0.050, the “Epitope mapping, fine specificity analysis, serum of subject P101” value (shortened to “Epitope mapping … of subject P101”) [2] was 10 and the “Epitope mapping, fine specificity analysis, serum of subject P102” value (“Epitope mapping … of subject P102” for short) [2] was 0. For the same substance, the “Epitope mapping, fine specificity analysis, serum of subject P103” value (“Epitope mapping … of subject P103” below) [2] was 0, the “Epitope mapping, fine specificity analysis, serum of subject P104” value (shortened to “Epitope mapping … of subject P104”) [2] was 0 and the “Epitope mapping, fine specificity analysis, serum of subject P105” value (“Epitope mapping … of subject P105” for short) [2] was 0. For the same substance, the “Epitope mapping, fine specificity analysis, serum of subject P106” value (“Epitope mapping … of subject P106” below) [2] was 0, the “Epitope mapping, fine specificity analysis, serum of subject P107” value (shortened to “Epitope mapping … of subject P107”) [2] was 0 and the “Epitope mapping, fine specificity analysis, serum of subject P108” value (“Epitope mapping … of subject P108” for short) [2] was 0. For the same substance, the “Epitope mapping, fine specificity analysis, serum of subject P109” value (“Epitope mapping … of subject P109” below) [2] was 0, the “Epitope mapping, fine specificity analysis, serum of subject P201” value (shortened to “Epitope mapping … of subject P201”) [2] was 0 and the “Epitope mapping, fine specificity analysis, serum of subject P202” value (“Epitope mapping … of subject P202” for short) [2] was 0. The “Epitope mapping, fine specificity analysis, serum of subject P203” value (“Epitope mapping … of subject P203” below) [2] was 0, the “Epitope mapping, fine specificity analysis, serum of subject P204” value (shortened to “Epitope mapping … of subject P204”) [2] was 0 and the “Epitope mapping, fine specificity analysis, serum of subject P205” value (“Epitope mapping … of subject P205” for short) [2] was 0. The “Epitope mapping, fine specificity analysis, serum of subject P206” value (“Epitope mapping … of subject P206” below) [2] was 0, the “Epitope mapping, fine specificity analysis, serum of subject P207” value (shortened to “Epitope mapping … of subject P207”) [2] was 0 and the “Epitope mapping, fine specificity analysis, serum of subject P208” value (“Epitope mapping … of subject P208” for short) [2] was 0. The “Epitope mapping, fine specificity analysis, serum of subject P209” value (“Epitope mapping … of subject P209” below) [2] was 0 and the “Epitope mapping, fine specificity analysis, serum of subject P210” value (shortened to “Epitope mapping … of subject P210”) [2] was 0.

“29 (HQKLVFFAED; PEPTIDE (1)..(10) Abeta 14-23 or APP 770(H685-D694); listed as Homo sapiens) [compound 29]” was tested, and the “Reactivity of antisera with peptide” value [1, 3] was 0.050, the “Reactivity of antisera with peptide” value [1, 4] was 0.058 and the “Reactivity of antisera with peptide” value [1, 5] was 0.047. For the same substance, the “Reactivity of antisera with peptide” value [1, 6] was 0.050, the “Epitope mapping … of subject P101” value [2] was 0 and the “Epitope mapping … of subject P102” value [2] was 0. The “Epitope mapping … of subject P103” value [2] was 0, the “Epitope mapping … of subject P104” value [2] was 0 and the “Epitope mapping … of subject P105” value [2] was 0. The “Epitope mapping … of subject P106” value [2] was 0, the “Epitope mapping … of subject P107” value [2] was 0 and the “Epitope mapping … of subject P108” value [2] was 0. The “Epitope mapping … of subject P109” value [2] was 0, the “Epitope mapping … of subject P201” value [2] was 0 and the “Epitope mapping … of subject P202” value [2] was 0. The “Epitope mapping … of subject P203” value [2] was 0, the “Epitope mapping … of subject P204” value [2] was 0 and the “Epitope mapping … of subject P205” value [2] was 0. For the same substance, the “Epitope mapping … of subject P206” value [2] was 0, the “Epitope mapping … of subject P207” value [2] was 0 and the “Epitope mapping … of subject P208” value [2] was 0. The “Epitope mapping … of subject P209” value [2] was 0 and the “Epitope mapping … of subject P210” value [2] was 0.

“30 (QKLVFFAEDV; PEPTIDE (1)..(10) Abeta 15-24 or APP 770(Q686-V695); listed as Homo sapiens) [compound 30]” was tested, and the “Reactivity of antisera with peptide” value [1, 3] was 0.043, the “Reactivity of antisera with peptide” value [1, 4] was 0.055 and the “Reactivity of antisera with peptide” value [1, 5] was 0.062. The “Reactivity of antisera with peptide” value [1, 6] was 0.059, the “Epitope mapping … of subject P101” value [2] was 0 and the “Epitope mapping … of subject P102” value [2] was 0. For the same substance, the “Epitope mapping … of subject P103” value [2] was 0, the “Epitope mapping … of subject P104” value [2] was 0 and the “Epitope mapping … of subject P105” value [2] was 0. The “Epitope mapping … of subject P106” value [2] was 0, the “Epitope mapping … of subject P107” value [2] was 0 and the “Epitope mapping … of subject P108” value [2] was 0. For the same substance, the “Epitope mapping … of subject P109” value [2] was 0, the “Epitope mapping … of subject P201” value [2] was 0 and the “Epitope mapping … of subject P202” value [2] was 0. For the same substance, the “Epitope mapping … of subject P203” value [2] was 0, the “Epitope mapping … of subject P204” value [2] was 0 and the “Epitope mapping … of subject P205” value [2] was 0. The “Epitope mapping … of subject P206” value [2] was 0, the “Epitope mapping … of subject P207” value [2] was 0 and the “Epitope mapping … of subject P208” value [2] was 0. For the same substance, the “Epitope mapping … of subject P209” value [2] was 0 and the “Epitope mapping … of subject P210” value [2] was 0.

In the case of “21 (HDSGYEVHHQ; PEPTIDE (1)..(10) Abeta 6-15 or APP 770(H677-Q686); listed as Homo sapiens) [compound 21]”, the “Reactivity of antisera with peptide” value [1, 3] is reported as 0.266, the “Reactivity of antisera with peptide” value [1, 4] is reported as 0.494 and the “Reactivity of antisera with peptide” value [1, 5] is reported as 0.419. The “Reactivity of antisera with peptide” value [1, 6] was 0.332, the “Epitope mapping … of subject P101” value [2] was 0 and the “Epitope mapping … of subject P102” value [2] was 0. The “Epitope mapping … of subject P103” value [2] was 0, the “Epitope mapping … of subject P104” value [2] was 0 and the “Epitope mapping … of subject P105” value [2] was 0. The “Epitope mapping … of subject P106” value [2] was 0, the “Epitope mapping … of subject P107” value [2] was 0 and the “Epitope mapping … of subject P108” value [2] was 0. The “Epitope mapping … of subject P109” value [2] was 0, the “Epitope mapping … of subject P201” value [2] was 0 and the “Epitope mapping … of subject P202” value [2] was 0. The “Epitope mapping … of subject P203” value [2] was 0, the “Epitope mapping … of subject P204” value [2] was 0 and the “Epitope mapping … of subject P205” value [2] was 0. For the same substance, the “Epitope mapping … of subject P206” value [2] was 0, the “Epitope mapping … of subject P207” value [2] was 0 and the “Epitope mapping … of subject P208” value [2] was 0. The “Epitope mapping … of subject P209” value [2] was 0 and the “Epitope mapping … of subject P210” value [2] was 0.

With “24 (GYEVHHQKLV; PEPTIDE (1)..(10) Abeta 9-18 or APP 770(G680-V689); listed as Homo sapiens) [compound 24]” the “Reactivity of antisera with peptide” value [1, 3] was 0.055, the “Reactivity of antisera with peptide” value [1, 4] was 0.067 and the “Reactivity of antisera with peptide” value [1, 5] was 0.052. The “Reactivity of antisera with peptide” value [1, 6] was 0.059, the “Epitope mapping … of subject P101” value [2] was 0 and the “Epitope mapping … of subject P102” value [2] was 0. The “Epitope mapping … of subject P103” value [2] was 0, the “Epitope mapping … of subject P104” value [2] was 0 and the “Epitope mapping … of subject P105” value [2] was 0. For the same substance, the “Epitope mapping … of subject P106” value [2] was 0, the “Epitope mapping … of subject P107” value [2] was 0 and the “Epitope mapping … of subject P108” value [2] was 0. The “Epitope mapping … of subject P109” value [2] was 0, the “Epitope mapping … of subject P201” value [2] was 0 and the “Epitope mapping … of subject P202” value [2] was 0. For the same substance, the “Epitope mapping … of subject P203” value [2] was 0, the “Epitope mapping … of subject P204” value [2] was 0 and the “Epitope mapping … of subject P205” value [2] was 0. For the same substance, the “Epitope mapping … of subject P206” value [2] was 0, the “Epitope mapping … of subject P207” value [2] was 16 and the “Epitope mapping … of subject P208” value [2] was 0. For the same substance, the “Epitope mapping … of subject P209” value [2] was 0 and the “Epitope mapping … of subject P210” value [2] was 0.
